Tests used:
Aβ42 = assay: Screening for γ-secretase-modulating activity, Method 1: Aβ42 sandwich ELISA in supernatant of SKNBE2 cells carrying APP 695 wild type (Tables 12a, 12b); format: cell-based
Procedure: (§1) Screening was carried out using SKNBE2 cells carrying the APP 695—wild type, grown in Dulbecco's Modified Eagle's Medium/Nutrient mixture F-12 (DMEM/NUT-mix F-12) (HAM) provided by Gibco (cat no. 31330-38) containing 5% Serum/Fe supplemented with 1% non-essential amino acids. Cells were grown to near confluency.
(§2) The screening was performed using the assay as described in Citron et al (1997) Nature Medicine 3: 67. Briefly, cells were plated in a 96-well plate at about 10^5 cells/ml one day prior to addition of compounds. Compounds were added to the cells in Ultraculture (Lonza, BE12-725F) supplemented with 1% glutamine (Invitrogen, 25030-024) for 18 hours. The media were assayed by two sandwich ELISAs, for Aβ42 and Aβtotal. Toxicity of the compounds was assayed by WST-1 cell proliferation reagent (Roche, 1 644 807) according to the manufacturer's protocol.
To quantify the amount of Aβ42 in the cell supernatant, commercially available Enzyme-Linked-Immunosorbent-Assay (ELISA) kits were used (Innotest® β-Amyloid(1-42), Innogenetics N.V., Ghent, Belgium). The Aβ42 ELISA was performed essentially according to the manufacturer's protocol. Briefly, the standards (dilutions of synthetic Aβ1-42) were prepared in polypropylene Eppendorf with final concentrations of 8000 down to 3.9 pg/ml (1/2 dilution step). Samples, standards and blanks (100 μl) were added to the anti-Aβ42-coated plate supplied with the kit (the capture antibody selectively recognizes the C-terminal end of the antigen). The plate was allowed to incubate 3 h at 25° C. in order to allow formation of the antibody-amyloid complex. Following this incubation and subsequent wash steps a selective anti-Aβ-antibody conjugate (biotinylated 3D6) was added and incubated for a minimum of 1 hour in order to allow formation of the antibody-Amyloid-antibody-complex. After incubation and appropriate wash steps, a Streptavidine-Peroxidase-Conjugate was added, followed 30 minutes later by an addition of 3,3′,5,5′-tetramethylbenzidine (TMB)/peroxide mixture, resulting in the conversion of the substrate into a coloured product. This reaction was stopped by the addition of sulfuric acid (0.9 N) and the colour intensity was measured by means of photometry with an ELISA-reader with a 450 nm filter.
(§3) To obtain the values reported in Table 12a, the sigmoidal dose response curves were analysed by computerised curve-fitting, with percent of inhibition plotted against compound concentration. A 4-parameter equation (model 205) in XLfit was used to determine the IC50. The top and the bottom of the curve were fixed to 100 and 0, respectively, and the hill slope was fixed to 1. The IC50 represents the concentration of a compound that is required for inhibiting a biological effect by 50% (Here, it is the concentration where Aβ peptide level is reduced by 50%).
(§4) To obtain the values reported in Table 12b, the data are calculated as percentage of the maximum amount of amyloid Beta 42 measured in the absence of the test compound. The sigmoidal dose response curves were analyzed using non-linear regression analysis with percentage of the control plotted against the log concentration of the compound. A 4-parameter equation was used to determine the IC50. The values reported in Table 12b are averaged IC50 values.

Aβtotal = assay: Screening for γ-secretase-modulating activity, Method 1: Aβtotal sandwich ELISA in supernatant of SKNBE2 cells carrying APP 695 wild type (Tables 12a, 12b); format: cell-based
Procedure: as §1, §2
To quantify the amount of Aβtotal in the cell supernatant, samples and standards were added to a 6E10-coated plate. The plate was allowed to incubate overnight at 4° C. in order to allow formation of the antibody-amyloid complex. Following this incubation and subsequent wash steps a selective anti-Aβ-antibody conjugate (biotinylated 4G8) was added and incubated for a minimum of 1 hour in order to allow formation of the antibody-Amyloid-antibody-complex. After incubation and appropriate wash steps, a Streptavidine-Peroxidase-Conjugate was added, followed 30 minutes later by an addition of Quanta Blu fluorogenic peroxidase substrate according to the manufacturer's instructions (Pierce Corp., Rockford, Ill.).
as §3, §4

[1] = Homo sapiens, Table 12b, Method 1, SKNBE2 cells carrying APP 695 wild type, cell supernatant ELISA, averaged IC50 values, percentage of control vs log concentration
[2] = Homo sapiens, Table 12b, Method 1, SKNBE2 cells carrying APP 695 wild type, cell supernatant ELISA, averaged IC50 values
[3] = Table 12b, Method 1, SKNBE2 cells carrying APP 695 wild type, cell supernatant ELISA, averaged IC50 values, percentage of control vs log concentration
[4] = Table 12b, Method 1, SKNBE2 cells carrying APP 695 wild type, cell supernatant ELISA, averaged IC50 values
[5] = Homo sapiens, Method 1, Table 12a, SKNBE2 cells carrying APP 695 wild type, compounds 18 hours, ELISA, curve top and bottom fixed to 100 and 0, hill slope 1
[6] = Method 1, Table 12a, SKNBE2 cells carrying APP 695 wild type, compounds 18 hours, ELISA, curve top and bottom fixed to 100 and 0, hill slope 1

SMILES | IC50 (Aβ42; [1]) [nM] | IC50 (Aβtotal; [2]) [nM] | IC50 (Aβ42; [3]) [nM] | IC50 (Aβtotal; [4]) [nM] | IC50 (Aβ42; [5]) [nM] | IC50 (Aβtotal; [5]) [nM] | IC50 (Aβ42; [6]) [nM] | IC50 (Aβtotal; [6]) [nM]
COc1cc(Nc2cccn3c(C#N)c(-c4ccc(F)cc4)nc23)ccc1-n1cnc(C)c1 [Compound 58] | < 110 | > 3020 | – | – | – | – | – | –
COc1cc(Nc2cccn3cc(-c4ccc(F)cc4)nc23)ccc1-n1cc(C)nc1C [Compound 20] | 871 | 5750 | – | – | – | – | – | –
CCCCc1cn2cccc(Nc3ccc(-n4cnc(C)n4)cc3)c2n1 [Compound 76] | – | – | 1950 | > 10000 | – | – | – | –
COc1cc(Nc2cccn3cc(-c4cccc(C(F)(F)F)c4)nc23)ccc1-n1cnc(C)c1 [Compound 48] | 52 | > 3020 | – | – | 60 | > 3000 | – | –
COc1cc(Nc2cccn3c(C(=O)c4ccc(F)cc4)cnc23)ccc1-n1cnc(C)c1 [Compound 62] | 417 | > 3020 | – | – | 477 | > 10000 | – | –
Cc1ncn(-c2ccc(Nc3cccn4cc(-c5ccc(F)cc5C)nc34)cc2)n1 [Compound 90] | 398 | > 3020 | – | – | – | – | – | –
COc1cc(Nc2cccn3cc(-c4ccc(F)cc4)nc23)ccc1-n1ncnc1C [Compound 45] | 200 | > 5010 | – | – | 232 | > 5000 | – | –
COc1cccc(-c2nc3c(Nc4ccc(-n5cnc(C)n5)c(OC)c4)cccn3c2C)c1 [Compound 67] | 40 | > 3020 | – | – | 51 | > 3000 | – | –
COc1cc(Nc2cccn3cc(C)nc23)ccc1-n1cnc(C)n1 [Compound 77] | 4360 | > 10000 | – | – | 2690 | > 10000 | – | –
COc1cc(Nc2cccn3c(-c4ccccc4-c4ccccc4)cnc23)ccc1-n1cnc(C)c1 [Compound 60] | < 110 | > 3020 | – | – | – | – | – | –
COc1cc(Nc2cccn3cc(-c4ccccn4)nc23)ccc1-n1cnc(C)c1 [Compound 41] | 363 | 7410 | – | – | 344 | 8540 | – | –
COc1cc(Nc2cccn3cc(CN4CCCCC4)nc23)ccc1-n1cnc(C)c1 [Compound 55] | – | – | 1290 | > 3020 | – | – | – | –
COc1cc(Nc2cccn3cc(-c4ccc(F)cc4C)nc23)ccc1-n1cnc(C)n1 [Compound 89] | 85 | > 3020 | – | – | – | – | – | –
COc1cc(Nc2cccn3cc(C(C)(C)C)nc23)ccc1-n1cnc(C)c1 [Compound 9] | 282 | > 10000 | – | – | 384 | > 10000 | – | –
COc1cc(Nc2cccn3c(CO)c(-c4ccc(F)cc4)nc23)ccc1-n1cnc(C)c1 [Compound 101] | 13 | > 1000 | – | – | – | – | – | –
COc1cc(Nc2cccn3cc(-c4ccc(F)cc4F)nc23)ccc1-n1cnc(C)c1 [Compound 25] | 240 | > 10000 | – | – | 251 | > 10000 | – | –

SMILES | IC50 (Aβ42; [1]) [nM] | IC50 (Aβtotal; [2]) [nM] | IC50 (Aβ42; [3]) [nM] | IC50 (Aβtotal; [4]) [nM] | IC50 (Aβ42; [5]) [nM] | IC50 (Aβtotal; [5]) [nM] | IC50 (Aβ42; [6]) [nM] | IC50 (Aβtotal; [6]) [nM]
COc1cc(Nc2cc(C(F)(F)F)cn3cc(Cc4ccc(F)cc4)nc23)ccc1-n1cnc(C)n1 [Compound 146] | – | – | 32 | > 3020 | – | – | – | –
COc1cc(Nc2cccn3c(CNC=O)c(-c4cccc(F)c4)nc23)ccc1-n1cnc(C)c1 [Compound 100] | – | – | 11 | > 3020 | – | – | – | –
COc1cc(Nc2cccn3cc(-c4cccc(F)c4)nc23)ccc1-n1cnc(C)c1 [Compound 19] | 56 | > 3020 | – | – | 59 | > 3000 | – | –
COc1cc(Nc2cccn3cc(-c4ccncc4)nc23)ccc1-n1cnc(C)c1 [Compound 43] | > 3020 | > 3020 | – | – | – | – | – | –
COc1cc(Nc2cccn3c(I)c(-c4ccc(F)cc4)nc23)ccc1-n1cnc(C)c1 [Compound 57] | 51 | > 3020 | – | – | 58 | > 1000 | – | –
COc1cccc(-c2nc3c(Nc4cnc(-n5cnc(C)c5)nc4)cccn3c2C)c1 [Compound 46] | – | – | 50 | > 3020 | – | – | 52 | > 3000
COc1cc(Nc2cccn3cc(-c4ccc(F)cc4)nc23)ccc1-n1cnc(C)n1 [Compound 6] | 263 | > 10000 | – | – | 239 | > 10000 | – | –
COc1cccc(-c2nc3c(Nc4ccc(-n5cnc(C)c5)cn4)cccn3c2C)c1 [Compound 68] | – | – | 18 | > 3020 | – | – | 18 | > 1000
COc1cc(Nc2cccn3c(-c4ccccc4)c(-c4ccccc4)nc23)ccc1-n1cnc(C)c1 [Compound 13] | 87 | > 3020 | – | – | 89 | > 3000 | – | –
COc1cc(Nc2cccn3cc(-c4ccc(C(F)(F)F)cc4)nc23)ccc1-n1cnc(C)c1 [Compound 30] | 45 | > 3020 | – | – | 57 | > 3000 | – | –
COc1cc(Nc2cccn3cc(-c4ccccc4Cl)nc23)ccc1-n1cnc(C)c1 [Compound 14] | 41 | > 3020 | – | – | 57 | > 3000 | – | –
Cc1ncn(-c2ccc(Nc3cccn4cc(-c5cc(C(F)(F)F)ccc5C)nc34)nc2)n1 [Compound 81] | – | – | 380 | > 10000 | – | – | – | –
CCCc1c(-c2ccc(F)cc2)nc2c(Nc3ccc(-n4cnc(C)c4)c(OC)c3)cccn12 [Compound 24] | – | – | 20 | > 10000 | – | – | 24 | > 1000
CCCCCCc1cnc2c(Nc3ccc(-n4cnc(C)c4)c(OC)c3)cccn12 [Compound 59] | – | – | 145 | > 3020 | – | – | 123 | > 3000
COc1cc(Nc2cc(C(F)(F)F)nn3cc(C)nc23)ccc1-n1cnc(C)c1 [Compound 164] | – | – | 178 | > 10000 | – | – | – | –
C=Cc1cn2cc(C(F)(F)F)cc(Nc3ccc(-n4cnc(C)n4)c(OC)c3)c2n1 [Compound 154] | > 3020 | > 3020 | – | – | – | – | – | –

— patent publication US8546440B2, “Substituted bicyclic imidazole derivatives as gamma secretase modulators” (Janssen Pharmaceuticals, Inc., priority 2008, dated 2013)
